Measurements taken from PubChem BioAssay (NCI).
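Compound exposure: 48 hours, 5 concentrations, 96-well plates. Definition used: TGI = concentration required for complete inhibition of growth.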

Columns and labels:
Assay in all cases: growth of human tumour cells (NCI), 48 h
MDA-MB-231 breast = test system: MDA-MB-231 breast
UACC-257 melanoma = test system: UACC-257 melanoma
HCT-15 colon = test system: HCT-15 colon
ACHN renal = test system: ACHN renal
SR leukemia = test system: SR leukemia
CCRF-CEM leukemia = test system: CCRF-CEM leukemia
UO-31 renal = test system: UO-31 renal
SN12C renal = test system: SN12C renal
SK-MEL-2 melanoma = test system: SK-MEL-2 melanoma
HT29 colon = test system: HT29 colon
M14 melanoma = test system: M14 melanoma
SK-MEL-5 melanoma = test system: SK-MEL-5 melanoma
NCI-H226 lung = test system: NCI-H226 lung
RXF 393 renal = test system: RXF 393 renal
KM12 colon = test system: KM12 colon
BT-549 breast = test system: BT-549 breast
MDA-MB-435 = test system: MDA-MB-435
SF-268 CNS = test system: SF-268 CNS
MALME-3M melanoma = test system: MALME-3M melanoma
OVCAR-8 ovarian = test system: OVCAR-8 ovarian
A498 renal = test system: A498 renal
T-47D breast = test system: T-47D breast
UACC-62 melanoma = test system: UACC-62 melanoma
SK-MEL-28 melanoma = test system: SK-MEL-28 melanoma
EKVX NSCLC = test system: EKVX NSCLC
HOP-92 NSCLC = test system: HOP-92 NSCLC
DU-145 prostate = test system: DU-145 prostate
CAKI-1 renal = test system: CAKI-1 renal
SW-620 colon = test system: SW-620 colon
LOX IMVI melanoma = test system: LOX IMVI melanoma
NCI-H460 lung = test system: NCI-H460 lung
PC-3 prostate = test system: PC-3 prostate
SF-539 CNS = test system: SF-539 CNS
SNB-19 CNS = test system: SNB-19 CNS
SF-295 CNS = test system: SF-295 CNS
OVCAR-5 ovarian = test system: OVCAR-5 ovarian
OVCAR-4 ovarian = test system: OVCAR-4 ovarian
786-0 renal = test system: 786-0 renal
OVCAR-3 ovarian = test system: OVCAR-3 ovarian
HCC-2998 colon = test system: HCC-2998 colon
U251 CNS = test system: U251 CNS
HOP-62 NSCLC = test system: HOP-62 NSCLC
MOLT-4 leukemia = test system: MOLT-4 leukemia
NCI-H522 lung = test system: NCI-H522 lung
MDA-N = test system: MDA-N
HCT-116 colon = test system: HCT-116 colon
HL-60(TB) leukemia = test system: HL-60(TB) leukemia
SK-OV-3 ovarian = test system: SK-OV-3 ovarian
HS 578T breast = test system: HS 578T breast
A549 NSCLC = test system: A549 NSCLC
NCI-H23 lung = test system: NCI-H23 lung
COLO 205 colon = test system: COLO 205 colon
MCF7 breast = test system: MCF7 breast
SNB-75 CNS = test system: SNB-75 CNS
NCI/ADR-RES ovarian = test system: NCI/ADR-RES ovarian
TK-10 renal = test system: TK-10 renal
K-562 leukemia = test system: K-562 leukemia
RPMI-8226 leukemia = test system: RPMI-8226 leukemia
IGROV1 ovarian = test system: IGROV1 ovarian

CCOC(=O)C(NC(=O)N(C1=NCC(C)S1)C1CCCCC1)(OC)C(F)(F)F (stereo unspecified)
TGI (MDA-MB-231 breast): > 100 µM | TGI (UACC-257 melanoma): > 100 µM | TGI (HCT-15 colon): > 100 µM | TGI (ACHN renal): 89.9 µM | TGI (SR leukemia): > 100 µM | TGI (CCRF-CEM leukemia): > 100 µM | TGI (UO-31 renal): > 100 µM | TGI (SN12C renal): 29.3 µM | TGI (SK-MEL-2 melanoma): > 100 µM | TGI (HT29 colon): 53 µM | TGI (M14 melanoma): > 100 µM | TGI (SK-MEL-5 melanoma): 66.8 µM | TGI (NCI-H226 lung): 47.5 µM | TGI (RXF 393 renal): 45.5 µM | TGI (KM12 colon): > 100 µM | TGI (BT-549 breast): > 100 µM | TGI (MDA-MB-435): > 100 µM | TGI (SF-268 CNS): > 100 µM | TGI (MALME-3M melanoma): > 100 µM | TGI (OVCAR-8 ovarian): > 100 µM | TGI (A498 renal): 44.4 µM | TGI (T-47D breast): > 100 µM | TGI (UACC-62 melanoma): > 100 µM | TGI (SK-MEL-28 melanoma): > 100 µM | TGI (EKVX NSCLC): > 100 µM | TGI (HOP-92 NSCLC): > 100 µM | TGI (DU-145 prostate): > 100 µM | TGI (CAKI-1 renal): > 100 µM | TGI (SW-620 colon): > 100 µM | TGI (LOX IMVI melanoma): 60.8 µM | TGI (NCI-H460 lung): > 100 µM | TGI (PC-3 prostate): > 100 µM | TGI (SF-539 CNS): 93.1 µM | TGI (SNB-19 CNS): > 100 µM | TGI (SF-295 CNS): > 100 µM | TGI (OVCAR-5 ovarian): > 100 µM | TGI (OVCAR-4 ovarian): > 100 µM | TGI (786-0 renal): 28.9 µM | TGI (OVCAR-3 ovarian): 71.1 µM | TGI (HCC-2998 colon): > 100 µM | TGI (U251 CNS): 53.6 µM | TGI (HOP-62 NSCLC): 41.7 µM | TGI (MOLT-4 leukemia): > 100 µM | TGI (NCI-H522 lung): 83.4 µM | TGI (MDA-N): > 100 µM | TGI (HCT-116 colon): > 100 µM | TGI (HL-60(TB) leukemia): 59.5 µM | TGI (SK-OV-3 ovarian): > 100 µM | TGI (HS 578T breast): > 100 µM | TGI (A549 NSCLC): > 100 µM | TGI (NCI-H23 lung): > 100 µM | TGI (COLO 205 colon): 50.8 µM | TGI (MCF7 breast): 62.2 µM | TGI (SNB-75 CNS): 75.1 µM | TGI (NCI/ADR-RES ovarian): > 100 µM | TGI (TK-10 renal): > 100 µM | TGI (K-562 leukemia): > 100 µM

CN1CCN(c2c(Cl)cc(Cl)c3[nH]c4ccccc4c(=O)c23)CC1
TGI (MDA-MB-231 breast): 28.7 µM | TGI (UACC-257 melanoma): 22.1 µM | TGI (HCT-15 colon): 17.1 µM | TGI (ACHN renal): 17 µM | TGI (SR leukemia): > 100 µM | TGI (CCRF-CEM leukemia): > 36.2 µM | TGI (UO-31 renal): 17.3 µM | TGI (SN12C renal): 21.5 µM | TGI (SK-MEL-2 melanoma): 28.1 µM | TGI (HT29 colon): 16.1 µM | TGI (M14 melanoma): 19.5 µM | TGI (SK-MEL-5 melanoma): 31.9 µM | TGI (NCI-H226 lung): 23 µM | TGI (RXF 393 renal): 25.2 µM | TGI (KM12 colon): 23 µM | TGI (BT-549 breast): 31.2 µM | TGI (MDA-MB-435): 19.8 µM | TGI (SF-268 CNS): 20.2 µM | TGI (MALME-3M melanoma): 6.67 µM | TGI (OVCAR-8 ovarian): 27.9 µM | TGI (A498 renal): 5.44 µM | TGI (T-47D breast): 38.5 µM | TGI (UACC-62 melanoma): 18.6 µM | TGI (SK-MEL-28 melanoma): 26.8 µM | TGI (EKVX NSCLC): 32.6 µM | TGI (HOP-92 NSCLC): 10.9 µM | TGI (DU-145 prostate): 16.6 µM | TGI (CAKI-1 renal): 20.6 µM | TGI (SW-620 colon): 21.3 µM | TGI (LOX IMVI melanoma): > 42.6 µM | TGI (NCI-H460 lung): 24.1 µM | TGI (PC-3 prostate): 23.3 µM | TGI (SF-539 CNS): 15.3 µM | TGI (SNB-19 CNS): 19.7 µM | TGI (RPMI-8226 leukemia): 56.8 µM | TGI (SF-295 CNS): 20.3 µM | TGI (OVCAR-5 ovarian): 29.3 µM | TGI (OVCAR-4 ovarian): 46.2 µM | TGI (786-0 renal): > 43.3 µM | TGI (OVCAR-3 ovarian): 33.5 µM | TGI (HCC-2998 colon): 19.4 µM | TGI (U251 CNS): 19.7 µM | TGI (HOP-62 NSCLC): 19.5 µM | TGI (MOLT-4 leukemia): 9.96 µM | TGI (IGROV1 ovarian): 20.3 µM | TGI (NCI-H522 lung): 19.2 µM | TGI (MDA-N): 20.7 µM | TGI (HCT-116 colon): > 42.6 µM | TGI (HL-60(TB) leukemia): 4.63 µM | TGI (SK-OV-3 ovarian): 24.3 µM | TGI (HS 578T breast): 22.6 µM | TGI (A549 NSCLC): 32.9 µM | TGI (NCI-H23 lung): 27 µM | TGI (COLO 205 colon): 25.3 µM | TGI (MCF7 breast): 15.8 µM | TGI (SNB-75 CNS): 22.5 µM | TGI (NCI/ADR-RES ovarian): 28.9 µM | TGI (TK-10 renal): 26.2 µM | TGI (K-562 leukemia): > 48.6 µM
